# Results reported in patent US8309068B2, “Isolated polypeptides and methods of improving muscle strength” (Myostin Therapeutics Pty Ltd., priority 2006, dated 2012).
# Where no end group is shown, it is not given here.
# Legend:
# C2C12 myoblasts = assay: C2C12 myoblast proliferation assay (methylene blue endpoint); type: cell-based, murine
# Description: A polypeptide of the invention, or a fragment, variant or derivative thereof has the biological function of antagonising myostatin activity. To determine whether a polypeptide of the invention, or a fragment, variant or derivative thereof, is able to antagonise myostatin activity, such activity can be tested by growing myoblasts in the presence or absence (control) of a candidate polypeptide of the invention. […]
# The myoblast proliferation assay was carried out in uncoated 96-well microtitre plates. C2C12 cultures were seeded at 1000 cells/well. Following a 16-hour attachment period, test media containing either recombinant wild type myostatin or different myostatin antagonists were added and cells were incubated for a further 48 or 72 hour period. For competition assay, wild type myostatin was competed with different concentrations of myostatin antagonists prior to the addition into the media. After the incubation period, proliferation was assessed using methylene blue photometric endpoint assay as previously described (Thomas et al, 2000).
# [1] = test system: C57B mice injected with Dexamethasone; assay: In vivo cachexia trial (Dexamethasone-induced)
# Description: A study of chronic cachexia was designed whereby C57B mice, 4 weeks of age, were injected with the glucocorticoid drug Dexamethasone daily at a concentration of 1 mg/kg body weight. Three treatment groups were designed: 5 mice receiving daily injections of saline, 5 mice receiving daily injections of Dexamethasone and 5 mice receiving daily injections of Dexamethasone plus 300 antagonist at a concentration of 6μg/g body weight. Body weight of the mice was recorded daily and monitored closely for signs of cachexia. Food and water consumption was recorded to ensure that loss in body weight was not due to a loss of appetite or thirst. Body weights, fat-pad weights, and MyoD and Pax7 expression were assessed.
# mdx mice = assay: Mdx in vivo trial
# Description: An in vivo trial was performed in which 4 week old mdx mice were injected 3× per week with 300 (6 μg/g) or saline (10 mice in each treatment) for 4 weeks. Body weights were recorded regularly and blood was collected for creatine kinase activity to assess the extent of muscle damage. Grip tests were performed as a measure of strength. After 4 weeks of treatment mice were culled and individual hind limb muscles collected for protein expression analysis—Pax7 & MyoD (satellite cell activation/myogenesis), and histology.
# Protein was extracted from three hind limb muscles, biceps femoris, tibialis anterior and gastrocnemius. 15 μg of protein was separated on 4-12% SDS PAGE, transferred to nitrocellulose membrane and immunoprobed with Pax7 and MyoD.
# Ten micron transverse sections were cut from the midbelly region of each m. gastrocnemius. Muscle sections were stained with haematoxylin and eosin (H & E) to visualise and measure areas of necrosis and regeneration. These areas were analysed using an Olympus BX50 microscope (Olympus, Tokyo, Japan), a SPOT-RT 4.01 camera and software (Diagnostic Instruments, Sterling Heights, Mich.). Areas were measured using Image-Pro Plus (Media Cybernetics, Silver Spring, Md.).
# Blood was collected by tail-bleeding into 75 mm heparinised microhematocrit tubes. Tubes were centrifuged in a Micro-hematocrit centrifuge (Adams) for 5 minutes and then the plasma removed. The recovered plasma was centrifuged again at 2500×g for 5 minutes and then stored at −80° C. until analysis. Plasma was separated from the red blood cells within 2 hours of blood collection to minimise hemolysis. Creatine kinase activity was determined using CK N-acetyl-L-cysteine creatine kinase kit (Beckman Coulter) within 6 weeks of plasma collection. Muscle strength was assessed using a grip strength apparatus (MK-380S, Muromachi; Tokyo, Japan) at the beginning, mid-point and end of the trial. The maximum force exerted by a mouse while being pulled backward by the tail is recorded in Newtons. The mean of three grip tests for each mouse was calculated and the mean maximal force of 10 mice per group was determined.
# satellite cells = assay: Single muscle fibre satellite cell activation assay (PCNA labeling); type: cell-based, mice
# Description: Single fibres were isolated as previously described Rosenblatt et al., (1995). Briefly, 1 and 24 month old wild-type mice were euthanized by CO2 gas followed by cervical dislocation. TA were dissected out and digested in 0.2% (w/v) type 1A collagenase (>260 CDU/mg, Sigma) in Dulbecco's modified Eagle medium (DMEM) (Invitrogen) for 60 minutes at 37° C. Muscles were transferred to DMEM +10% horse serum (HS) +0.5% chicken embryo extract (CEE) and fibres were separated by gentle trituration. Isolated fibres were transferred to 4 well chamber slides (Becton Dickinson) coated with 10% matrigel (Becton Dickinson) and fixed with 100% ice cold methanol for 10 minutes after culturing up to 72 hours at 37° C. in 5% CO2.
# Proliferating Cell Nuclear Antigen (PCNA) is expressed in cells that are actively undergoing cell cycle but not in quiescent cells. […] However, upon activation, satellite cells are activated to express PCNA and regenerate the muscle by replenishing the muscle fibres. Thus PCNA is a very reliable antigen to marker for the activated satellite cells.
# In order to determine the effect of myostatin antagonists on satellite cell activation, single muscle fibres from TA muscle of young (1 month) or old (24 month) wild type mice were cultured in presence of 5 μg/ml of myostatin antagonist 320, 310 or 300, in culture media for 24, 48 and 72 hours and fixed with methanol and washed in PBS. The fixed fibres were permeabilised in 0.5% TritonX-100 in PBS for 10 minutes, blocked in 10% normal goat serum and 0.35% carrageenan lambda in PBS for 30 minutes at room temperature then incubated with a 1:100 dilution of anti-PCNA antibody in blocker overnight. Primary antibody was detected using goat anti-mouse-alexa fluor 546 and fibres were counterstained with DAPI. PCNA positive activated satellite cells were counted under microscope and expressed as a percent of total myonuclei.
# Wild type mice = assay: In vivo sarcopenia trial, 10 month administration in wild type mice
# Description: Wild type mice (32 mice approx. 4-5 months of age) were injected subcutaneously fortnightly or monthly with 300 (6 μg/g body weight) or saline for a period of 10 month. Muscle strength was assessed using a grip strength apparatus (MK-380S, Muromachi; Tokyo, Japan) at the end of the trial. The maximum force exerted by a mouse while being pulled backward by the tail is recorded in Newtons. The mean of three grip tests for each mouse was calculated and the mean maximal force per group was determined.
# [2] = 6 μg/g 3x per week for 4 weeks, biceps femoris, tibialis anterior and gastrocnemius
# [3] = m. gastrocnemius sections, H & E
substance,measurement,setting,value
"myostatin antagonist 300: recombinant peptide, amino acids 267-300 of bovine myostatin, with N terminal and C terminal tag (SEQ ID NO: 6) (DFGLDCDEHSTESRCCRYPLTVDFEAFGWDWIIA; cysteine pairing not given here; also: N- and C-terminal tags; listed as Homo sapiens)",proliferation capacity of myoblasts compared to control,C2C12 myoblasts; 1 μg/ml or 5 μg/ml over 48 or 72 hours,significantly enhanced
same,concentration at which the highest myoblast proliferation rate was observed,C2C12 myoblasts; 48 hour time point,5 µg/mL
same,Pax7 expression (Western blot),"[1]; Dexamethasone and 300, right gastrocnemius, p<0.01",significant up-regulation (rescue)
same,MyoD expression (Western blot),"[1]; Dexamethasone and 300, right gastrocnemius, p<0.05",significant up-regulation (rescue)
same,increase in left inguinal fat-pad weight,[1]; Dexamethasone plus 300,33.2%
same,increase in left retroperitoneal fat-pad weight,[1]; Dexamethasone plus 300,23.3%
same,increase in right inguinal fat-pad weight,[1]; Dexamethasone plus 300,39%
same,increase in right retroperitoneal fat-pad weight,[1]; Dexamethasone plus 300,39.2%
same,average body weight loss,[1]; co-treatment Dexamethasone 1 mg/kg and 300 6 μg/g daily,smaller average body weight loss
same,MyoD protein level (western blot),mdx mice; [2],substantial upregulation
same,Pax7 protein level (western blot),mdx mice; [2],substantial upregulation
same,change in plasma creatine kinase activity from commencement to completion of the trial,"mdx mice; 4 weeks, vs saline",larger decrease
same,grip strength,mdx mice; after 4 weeks of treatment,significant increase
same,percentage necrotic area of muscle,mdx mice; [3],Reduced Necrosis
same,percentage regenerating area of muscle,mdx mice; [3],Increased Regeneration
same,percentage of activated satellite cells,"satellite cells; single fibres from old (2 year old) mice, 5 μg/ml, 24 or 48 hours",Significant increases
same,"percentage of activated satellite cells, comparison among antagonists and times","satellite cells; single fibres from old (2 year old) mice, after 48 hours",greatest increase
same,number of satellite cells activated (PCNA positive nuclei),"satellite cells; single fibres from young (1 month old) wild type mice, 5 μg/ml, 24 or 48 hours",significant increase
same,"increase of muscle function, fortnightly compared with monthly application","Wild type mice; 6 μg/g SC fortnightly for 10 month, data not shown",equally effective
same,grip strength over saline control at the end of the trial,"Wild type mice; 6 μg/g SC monthly for 10 month, p<0.01",significant increase
